Tests used:
CA-MRSA (USA300-0114) = assay: MIC against community-acquired methicillin-resistant S. aureus (CA-MRSA); assay type: cell-based; conditions: Staphylococcus aureus, 72 h
Protocol: The term “minimum inhibitory concentration (MIC)” means the lowest concentration of an antimicrobial agent that will inhibit the visible growth of a microorganism after overnight incubation. MIC values against bacteria, for example, the Gram-positive Staphylococcus aureus and Enterococcus faecalis and the Gram-negative Escherichia coli and Pseudomonas aeruginosa were determined by standard methods. See also P. A. Wayne, Methods for Dilution Antimicrobial Tests for Bacteria that Grow Aerobically; Approved Standard, Ninth Edition, 2012, CLSI Document M07-A9, Vol. 32 No. 2.
Biological testing procedures were adapted from prior work by Melander and coworkers. For all biological assays, laboratory strains of methicillin-susceptible Staphylococcus aureus MSSA (SH1000), Staphylococcus aureus CA-MRSA (USA300-0114), Staphylococcus aureus HA-MRSA (ATCC 33591), Escherichia coli (MC4100), Enterococcus faecalis (OG1RF), Acinetobacter baumannii (ATCC 17978), were grown with shaking at 37 °C overnight from freezer stocks in 5 mL of the indicated media: SH1000, OG1RF, MC4100, USA300-0114, and ATCC 17978 were grown in BDTM Mueller-Hinton broth (MHB), whereas ATCC 33591 was grown in BDTM tryptic soy broth (TSB). The inoculum were then streaked onto Mueller-Hinton agar (MHA) plates and grown overnight at 37 °C. From the plates, single colonies were selected, diluted into 50 mL of fresh media and grown overnight at 37 °C with shaking for use in the MIC assays. Optical density (OD) measurements were obtained using a SpectraMax iD3 plate reader (Molecular Devices, United States).
Compounds were serially diluted two-fold from stock solutions (1.0 mM) to yield twelve 100 μL test concentrations, wherein the starting concentration of dimethyl sulfoxide (DMSO) was 2.5%. Overnight S. aureus, E. faecalis, E. coli, A. baumannii, USA300-0114 (CA-MRSA), and ATCC 33591 (HA-MRSA) cultures were diluted to ca. 10^6 CFU/mL in MHB or TSB and regrown to mid-exponential phase, as determined by optical density recorded at 600 nm (OD600). All cultures were then diluted again to ca. 10^6 CFU/mL and 100 μL were inoculated into each well of a U-bottom 96-well plate (Corning, 351177) containing 100 μL of compound solution. Plates were incubated statically at 37 °C for 72 hours upon which wells were evaluated visually for bacterial growth. The MIC was determined as the lowest concentration of compound resulting in no bacterial growth visible to the naked eye, based on the highest value in three independent experiments. Aqueous DMSO controls were conducted as appropriate for each compound.
The prepared library of biscationic amphiphilic compounds was assessed for performance as antibacterial disinfectants by determining the minimum inhibitory concentration (MIC) for each against a panel of bacteria. The bacteria selected for the study were chosen to evaluate the broad spectrum antimicrobial performance of the QPCs, and therefore, included both Gram-positive and Gram-negative bacterial strains, including those with known antimicrobial resistance mechanisms. These bacteria include the Gram-positive strains of methicillin-susceptible Staphylococcus aureus [MSSA; SH1000], community-acquired methicillin-resistant Staphylococcus aureus [CA-MRSA; USA 300-0114], hospital-acquired methicillin-resistant Staphylococcus aureus [HA-MRSA; ATCC 33591] and the […], Escherichia coli [MC4100], Acinetobacter baumannii [ATCC 17498] and Pseudomonas aeruginosa [PAO1].

red blood cells = assay: Red Blood Cell (RBC) Lysis Assay (lysis20); assay type: cell-based, sheep; conditions: concentration inducing 20% RBC lysis; sheep blood, 1 hour, 37 °C
Protocol: RBC lysis assays were performed on mechanically defibrinated sheep blood (Hemostat Labs: DSB030). An aliquot of 1.5 mL blood was placed into a microcentrifuge tube and centrifuged at 3,800 rpm for ten minutes. The supernatant was removed, and the cells were resuspended with 1 mL of phosphate-buffered saline (PBS). The suspension was centrifuged as described above, the supernatant was removed, and cells were resuspended 4 additional times in 1 mL PBS. The final cell suspension was diluted twentyfold with PBS. Compounds were serially diluted with PBS two-fold from stock solutions (1.0 mM) to yield 100 μL of twelve test concentrations on a flat-bottom 96-well plate (Corning, 351172), wherein the starting concentration of DMSO was 2.5%. To each of the wells, 100 μL of the twentyfold suspension dilution was then inoculated. TritonX (1% by volume) served as a positive control (100% lysis marker) and sterile PBS served as a negative control (0% lysis marker). Samples were then placed in an incubator at 37 °C and shaken at 200 rpm. After 1 hour, the samples were centrifuged at 3,800 rpm for ten minutes. The absorbance of the supernatant was measured with a UV spectrometer at a 540 nm wavelength. The concentration inducing 20% RBC lysis was then calculated for each compound based upon the absorbances of the TritonX and PBS controls. Aqueous DMSO controls were conducted as appropriate for each compound.
The potential cytotoxicity of the compounds was also considered with the evaluation of hemolysis (lysis20) assays with 20% lysis of red blood cells serving as an indicator of potentially toxic compounds. Finally, the bioactivity of these compounds were benchmarked against a commercial benzalkonium chloride source (BAC; 70% benzyldimethyldodecylammonium chloride, and 30% benzyldimethyltetradecylammonium chloride) as well as some previously reported disinfectant compounds from the inventors' groups; included were bisQPC ^PhP6P-10,10 as well as ^PhP2P-10,10 and 12(2)12. A detailed description of the experimental procedures used to evaluate bioactivity and hemolysis assays are described above.

HA-MRSA = assay: MBEC, biofilm eradication, HA-MRSA; assay type: cell-based, Staphylococcus aureus; conditions: 24 hours, 37 °C, TSB
Protocol: A regrowth assay was used to establish the MBEC of a compound to evaluate the antibiofilm activity.
Biofilm eradication experiments were performed using a pegged-lid microtiter plate assay to determine the MBEC values for compounds of interest, as previously described. […] Sci. Rep. 2017, 7, 2003; and Raval, Y. S., Flurin, L., Mohamed, A., Greenwood-Quaintance, K. E., Beyenal, H., & Patel, R. In Vitro Activity of Hydrogen Peroxide and Hypochlorous Acid Generated by Electrochemical Scaffolds Against Planktonic and Biofilm Bacteria. Antimicrob Agents Chemother. 2021, 65, e01966-20. Briefly, […] of mid-log phase culture diluted to ca. 10^6 CFU/mL in tryptic soy broth (TSB) was added to wells of plat-bottom 96-well plates (Thermo Scientific, 266120) and covered with 96-pegged lid (Thermo Scientific, 445497). Plates were incubated to establish bacterial biofilms after incubation at 37 °C for 24 hours. The pegged lid was then removed, washed with PBS, and transferred to another 96-well plate containing 2-fold serial dilutions of the test compounds (the “challenge plate”). The total volume in each well was […], comprising of […] of compound diluted in water/DMSO, with a starting DMSO concentration of 2.5%, and […] of TSB. Plates were incubated statically at 37 °C for 24 hours. Next, the pegged lids were transferred to a fresh 96-well plate containing […] of TSB and incubated overnight at 37 °C. MBEC values were determined as the lowest test concentration that resulted eradicated biofilm (i.e., wells displaying no turbidity in the final plate).

Row | SMILES | MIC (CA-MRSA (USA300-0114)) | Lysis20 (red blood cells) | MBEC (HA-MRSA)
1 | CCCCCCCCCCCC[N+](C)(C)CC[N+](C)(C)CCCCCCCCCCCC [12(2)12, reference compound] | 2 µM | 16 µM | 4 µM
2 | CCCCCCCCCCCC[P+](C)(C)CC[P+](C)(C)CCCCCCCCCCC [^MeP2P-12,12] | 2 µM | 8 µM | 8 µM
